Source: PubChem BioAssay (NCI)
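How tested: cells in 96-well plates exposed to compound for 48 hours at five concentrations. GI50 marks 50% less growth. At the TGI there is no net growth.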

Columns and labels:
Test in all cases: DTP human tumour cell line panel, 48 h
[1] = test system: SK-OV-3 ovarian
[2] = test system: MOLT-4 leukemia
[3] = test system: RPMI-8226 leukemia
[4] = test system: EKVX NSCLC
[5] = test system: HCC-2998 colon
[6] = test system: U251 CNS
[7] = test system: NCI-H460 lung
[8] = test system: MDA-MB-231 breast
[9] = test system: SNB-19 CNS
[10] = test system: HCT-15 colon

| Compound | GI50 [1] [µM] | TGI [1] [µM] | GI50 [2] [µM] | TGI [2] [µM] | GI50 [3] [µM] | TGI [3] [µM] | GI50 [4] [µM] | TGI [4] [µM] | GI50 [5] [µM] | TGI [5] [µM] | GI50 [6] [µM] | TGI [6] [µM] | GI50 [7] [µM] | TGI [7] [µM] | GI50 [8] [µM] | TGI [8] [µM] | GI50 [9] [µM] | TGI [9] [µM] | GI50 [10] [µM] | TGI [10] [µM] |
| --- | --- | --- | --- | --- | --- | --- | --- | --- | --- | --- | --- | --- | --- | --- | --- | --- | --- | --- | --- | --- |
| CN1CCN(Cc2ccc(NC(=O)c3cncc(C#Cc4cnc(N)cc4C#N)c3)cc2C(F)(F)F)CC1 | 2.63 | 9.31 | 1.86 | 22.3 | 3.83 | 21 | 3.4 | 14.7 | 3.9 | 15.4 | 4.45 | 19.1 | 2.66 | 12.7 | 1.15 | 3.1 | 6.27 | 18.9 | 3.87 | 13.9 |
| CN(C)c1ccc(/C=C2\N=C(c3ccccc3)N(c3cc(C(F)(F)F)ccc3Cl)C2=O)cc1 | > 100 | > 100 | > 100 | > 100 | 35.7 | > 100 | > 100 | > 100 | > 100 | > 100 | > 94.7 | > 100 | > 100 | > 100 | > 100 | > 100 | > 100 | > 100 | > 100 | > 100 |
| COc1ccc(NC(=O)/C=C(C)/C=C/C=C(C)/C=C/C2=C(C)CCCC2(C)C)cc1 | 17 | 30.7 | 2.34 | 5.96 | 2.33 | 7.76 | 14.9 | 29.2 | 17.7 | 33.5 | 4.76 | 17.9 | 12.8 | 26.9 | 4.25 | 15.1 | 14.7 | 28.1 | 4.51 | 18.1 |
| COC(=O)C12CC(NC(=O)c3csc([C@@H](C[C@H](C(C)C)N(C)C(=O)[C@@H](NC(=O)[C@H]4CCCCN4C)C4CC4)OC(C)=O)n3)(C1)C2 | 0.0735 | > 16.7 | 0.00745 | > 16.7 | 0.00674 | > 16.7 | 0.0696 | > 16.7 | 0.0851 | > 16.7 | 0.0474 | > 16.7 | 0.0472 | > 16.7 | 0.0435 | > 16.7 | 0.0581 | > 16.7 | 0.112 | > 16.7 |
| CN(C)c1nc(=NCc2ccco2)ss1 |  | > 87 |  | 44.8 |  | 36.3 |  | 64.3 |  | > 79.1 |  | 67.5 |  | > 100 |  | 32.2 |  | > 80.4 |  | 49.9 |
| COC(=O)C(CCC(=O)CCl)N1C(=O)c2ccccc2C1=O (stereo not given) |  | 31.5 |  | 6.94 |  | 20.7 |  | 35.3 |  | 22.5 |  | 28.9 |  | 29.5 |  | 28.7 |  | 37.1 |  | 15.8 |
| O=C(Nc1ccc(-n2ccc3c(NC(=O)c4ccccc4)ncnc32)cc1)c1cccc(C(F)(F)F)c1 | 4.12 | 29.4 | 0.493 | 32.7 | 1.6 | 33.3 | 6.38 | 22.7 | 4.96 | 27 | 0.146 | 13.7 | 0.0837 | 12.3 | 2.76 | 23 | 2.13 | 33.4 | 0.0643 | 24.8 |
| CCOc1ccc2c(c1)C(=O)c1c-2n(CCCBr)c(=O)c2cc([N+](=O)[O-])ccc12 | 17.6 | > 100 | 4.18 | > 100 | 30.7 | > 100 | 86.1 | > 100 | 57.7 | > 100 | 6.13 | > 100 | 1.97 | 91.6 | > 100 | > 100 | 4.75 | > 100 | 36 | > 100 |
| CC(C)c1nc(N(C)S(C)(=O)=O)nc(-c2ccc(F)cc2)c1/C=C/[C@@H](O)C[C@@H](O)CC(=O)O | > 100 | > 100 | > 100 | > 100 | > 100 | > 100 | > 100 | > 100 | > 100 | > 100 | 18.9 | > 100 | > 100 | > 100 | 4.81 | 42 | 48.2 | > 100 | 57.4 | > 100 |
